Patent US20090232838A1, “Ligands of melanocortin receptors” (priority 2005, published 2009)

Tests used:
Format in all cases: cell-based
hMC1-R = biological target: T1, hMC1-R (Homo sapiens, UniProt Q01726); experiment: cyclic AMP bioassay, hMC1-R
T1 construct: expressed in transfected cells; host or cells: CHO-K1

hMC3-R = biological target: T2, hMC3-R (Homo sapiens, UniProt P41968); experiment: cyclic AMP bioassay, hMC3-R
T2 construct: expressed in transfected cells; host or cells: CHO-K1

hMC4-R = biological target: T3, hMC4-R (Homo sapiens, UniProt P32245); experiment: cyclic AMP bioassay, hMC4-R
T3 construct: expressed in transfected cells; host or cells: CHO-K1
T3 sequence (P32245 whole entry): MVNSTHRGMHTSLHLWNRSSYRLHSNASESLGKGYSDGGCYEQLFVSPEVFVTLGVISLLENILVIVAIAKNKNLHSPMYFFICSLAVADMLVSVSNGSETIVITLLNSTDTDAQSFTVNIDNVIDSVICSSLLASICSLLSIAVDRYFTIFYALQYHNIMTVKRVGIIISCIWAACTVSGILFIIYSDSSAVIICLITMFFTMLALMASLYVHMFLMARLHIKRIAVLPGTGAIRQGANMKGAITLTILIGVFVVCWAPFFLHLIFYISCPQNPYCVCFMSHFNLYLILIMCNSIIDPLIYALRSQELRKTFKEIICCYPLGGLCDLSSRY

hMC5-R = biological target: T4, hMC5-R (Homo sapiens, UniProt P33032); experiment: cyclic AMP bioassay, hMC5-R
T4 construct: expressed in transfected cells; host or cells: CHO-K1
T4 sequence (P33032 whole entry): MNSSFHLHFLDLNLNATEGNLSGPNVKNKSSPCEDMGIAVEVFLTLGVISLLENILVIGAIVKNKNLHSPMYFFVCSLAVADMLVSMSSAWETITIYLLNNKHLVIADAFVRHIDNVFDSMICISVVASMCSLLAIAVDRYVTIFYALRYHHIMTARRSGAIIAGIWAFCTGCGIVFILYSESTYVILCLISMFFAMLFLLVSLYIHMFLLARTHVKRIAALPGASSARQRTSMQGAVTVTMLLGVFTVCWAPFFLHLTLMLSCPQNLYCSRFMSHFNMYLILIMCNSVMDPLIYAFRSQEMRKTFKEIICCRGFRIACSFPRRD
Protocol: Intracellular cyclic AMP (cAMP) levels were determined by an electrochemiluminescence (ECL) assay (Meso Scale Discovery®, Gaithersburg, Md.; referred to hereinafter as MSD). […] Transgenic CHO-K1 cells stably expressing hMC receptor subtypes 1, 3, 4 or 5 were dispensed at a density of approximately 7,000 cells/well in 384-well Multi-Arrays plates (MSD) containing integrated carbon electrodes and coated with anti-CAMP antibody. Increasing concentrations of the test compounds were added and the cells were incubated for approximately 40 minutes at approximately 37° C. […] At the end of the second incubation period read buffer (Tris-buffered solution containing an ECL co-reactant and Triton X-100 at ph 7.8) was added and the cAMP levels in the cell lysates were immediately determined by ECL detection with a Sector Imager 6000 Reader® (MSD). Data were analyzed using a computer-assisted non-linear regression analysis (XL fit; IDBS) and reported as either an EC50 value or a Kb value.
The Kb value reflects the potency of an antagonist and is determined by Schild analysis. In brief, concentration-response curves of an agonist are carried out in the presence of increasing concentrations of an antagonist. […] It is calculated by extrapolating the line on a Schild plot to zero on the y-axis.

T1 sequence (Q01726 whole entry): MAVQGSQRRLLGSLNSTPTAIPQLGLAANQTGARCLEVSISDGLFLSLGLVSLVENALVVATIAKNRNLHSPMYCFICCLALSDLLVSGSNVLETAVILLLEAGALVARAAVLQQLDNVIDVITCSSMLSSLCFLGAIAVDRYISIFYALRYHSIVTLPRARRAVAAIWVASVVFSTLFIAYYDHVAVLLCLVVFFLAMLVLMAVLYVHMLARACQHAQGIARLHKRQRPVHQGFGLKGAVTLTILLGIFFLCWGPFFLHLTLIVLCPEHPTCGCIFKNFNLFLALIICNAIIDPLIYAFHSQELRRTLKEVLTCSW
T2 sequence (P41968 whole entry): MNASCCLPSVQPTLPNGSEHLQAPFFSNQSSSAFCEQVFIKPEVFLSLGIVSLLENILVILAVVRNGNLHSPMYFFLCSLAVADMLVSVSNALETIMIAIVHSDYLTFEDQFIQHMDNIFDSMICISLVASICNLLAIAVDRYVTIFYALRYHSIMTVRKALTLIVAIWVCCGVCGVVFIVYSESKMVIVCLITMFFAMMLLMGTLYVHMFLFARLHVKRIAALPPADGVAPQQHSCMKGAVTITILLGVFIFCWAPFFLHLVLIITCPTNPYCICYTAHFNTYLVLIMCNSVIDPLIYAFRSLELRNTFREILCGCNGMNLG

| SMILES | EC50 (hMC1-R) [nM] | EC50 (hMC3-R) [nM] | EC50 (hMC4-R) [nM] | EC50 (hMC5-R) [nM] | Kb (hMC3-R) [nM] | Kb (hMC4-R) [nM] |
| --- | --- | --- | --- | --- | --- | --- |
| CCCC[C@H](NC(C)=O)C(=O)N[C@H]1CSSC[C@@H](C(=O)NCCOCCOCC(=O)NCCOCCOCC(=O)N[C@@H](Cc2ccc(O)cc2)C(=O)NCC(=O)N[C@@H](CCCNC(=N)N)C(=O)N[C@@H](CCCCN)C(=O)N[C@@H](CCCCN)C(=O)N[C@@H](CCCNC(=N)N)C(=O)N[C@@H](CCCNC(=N)N)C(=O)N[C@@H](CCC(N)=O)C(=O)N[C@@H](CCCNC(=N)N)C(=O)N[C@@H](CCCNC(=N)N)C(=O)N[C@@H](CCCNC(=N)N)C(N)=O)NC(=O)[C@H](Cc2c[nH]c3ccccc23)NC(=O)[C@H](CCCNC(=N)N)NC(=O)[C@@H](Cc2ccccc2)NC(=O)[C@H](Cc2c[nH]cn2)NC(=O)[C@@H](C)NC1=O | 4.7 | 4.56 | 0.634 | 147 |  |  |
| CCCC[C@H](NC(C)=O)C(=O)N[C@H]1CSSC[C@@H](C(=O)NCCC(=O)N[C@@H](Cc2ccc(O)cc2)C(=O)NCC(=O)N[C@@H](CCCNC(=N)N)C(=O)N[C@@H](CCCCN)C(=O)N[C@@H](CCCCN)C(=O)N[C@@H](CCCNC(=N)N)C(=O)N[C@@H](CCC(N)=O)C(=O)N[C@@H](CCCNC(=N)N)C(=O)N[C@@H](CCCNC(=N)N)C(=O)N[C@@H](CCCNC(=N)N)C(=O)N[C@@H](CCCNC(=N)N)C(N)=O)NC(=O)[C@H](Cc2c[nH]c3ccccc23)NC(=O)[C@H](CCCNC(=N)N)NC(=O)[C@@H](Cc2ccccc2)NC(=O)[C@H](Cc2c[nH]cn2)NC(=O)[C@@H](C)NC1=O | 5.9 | 7.73 | 1.02 | 2890 |  |  |
| CCCC[C@H](NC(C)=O)C(=O)N[C@H]1CSSC[C@@H](C(=O)NCCC(=O)NCC(=O)N[C@@H](CCCNC(=N)N)C(=O)N[C@@H](CCCNC(=N)N)C(=O)N[C@@H](CCCNC(=N)N)C(=O)N[C@@H](CCCNC(=N)N)C(=O)N[C@@H](CCCNC(=N)N)C(=O)N[C@@H](CCC(N)=O)C(=O)N[C@@H](CCCNC(=N)N)C(=O)N[C@@H](CCCNC(=N)N)C(=O)N[C@@H](CCCNC(=N)N)C(N)=O)NC(=O)[C@H](Cc2c[nH]c3ccccc23)NC(=O)[C@H](CCCNC(=N)N)NC(=O)[C@@H](Cc2ccccc2)NC(=O)[C@H](Cc2c[nH]cn2)NC(=O)[C@@H](C)NC1=O | 0.481 | 7.32 | 0.964 | 2010 |  |  |
| CCCC[C@H](NC(C)=O)C(=O)N[C@H]1CSSC[C@@H](C(=O)NCCC(=O)N[C@@H](CCCNC(=N)N)C(=O)N[C@@H](CCCNC(=N)N)C(=O)N[C@@H](CCCNC(=N)N)C(=O)N[C@@H](CCCNC(=N)N)C(=O)N[C@@H](CCCNC(=N)N)C(=O)N[C@@H](CCC(N)=O)C(=O)N[C@@H](CCCNC(=N)N)C(=O)N[C@@H](CCCNC(=N)N)C(=O)N[C@@H](CCCNC(=N)N)C(N)=O)NC(=O)[C@H](Cc2c[nH]c3ccccc23)NC(=O)[C@H](CCCNC(=N)N)NC(=O)[C@@H](Cc2ccccc2)NC(=O)[C@H](Cc2c[nH]cn2)NC(=O)[C@@H](C)NC1=O | 7.15 | 9.37 | 1.25 | 1570 |  |  |
| CC(=O)N[C@H]1CSSC[C@@H](C(=O)N2CCC[C@H]2C(=O)N2CCC[C@H]2C(=O)N[C@@H](CCCCN)C(=O)N[C@@H](CC(=O)O)C(=O)NCCC(=O)N[C@@H](Cc2ccc(O)cc2)C(=O)NCC(=O)N[C@@H](CCCNC(=N)N)C(=O)N[C@@H](CCCNC(=N)N)C(=O)N[C@@H](CCCCN)C(=O)N[C@@H](CCCNC(=N)N)C(=O)N[C@@H](CCCNC(=N)N)C(=O)N[C@@H](CCC(N)=O)C(=O)N[C@@H](CCCNC(=N)N)C(=O)N[C@@H](CCCNC(=N)N)C(=O)N[C@@H](CCCNC(=N)N)C(N)=O)NC(=O)[C@H](C)NC(=O)[C@H](Cc2cccc3ccccc23)NC(=O)[C@H](CCCNC(=N)N)NC(=O)[C@@H](Cc2ccc3ccccc3c2)NC(=O)[C@H](Cc2c[nH]cn2)NC(=O)[C@H](CCC(=O)O)NC1=O | 29 |  |  | 173 | 22.6 | 16.7 |
| CC(=O)N[C@H]1CSSC[C@@H](C(=O)N2CCC[C@H]2C(=O)N2CCC[C@H]2C(=O)N[C@@H](CCCCN)C(=O)N[C@@H](CC(=O)O)C(=O)NCCC(=O)N[C@@H](CCCNC(=N)N)C(=O)N[C@@H](CCCCN)C(=O)N[C@@H](CCCNC(=N)N)C(=O)N[C@@H](CCCNC(=N)N)C(=O)N[C@@H](CCCNC(=N)N)C(=O)N[C@@H](CCC(N)=O)C(=O)N[C@@H](CCCNC(=N)N)C(=O)N[C@@H](CCCNC(=N)N)C(=O)N[C@@H](CCCNC(=N)N)C(N)=O)NC(=O)[C@H](C)NC(=O)[C@H](Cc2cccc3ccccc23)NC(=O)[C@H](CCCNC(=N)N)NC(=O)[C@@H](Cc2ccc3ccccc3c2)NC(=O)[C@H](Cc2c[nH]cn2)NC(=O)[C@H](CCC(=O)O)NC1=O | 33.1 |  |  | 1720 | 65.1 | 15.3 |
| CC(=O)N[C@H]1CSSC[C@@H](C(=O)N2CCC[C@H]2C(=O)N2CCC[C@H]2C(=O)N[C@@H](CCCCN)C(=O)N[C@@H](CC(=O)O)C(=O)NCCC(=O)NCC(=O)N[C@@H](CCCNC(=N)N)C(=O)N[C@@H](CCCNC(=N)N)C(=O)N[C@@H](CCCCN)C(=O)N[C@@H](CCCNC(=N)N)C(=O)N[C@@H](CCCNC(=N)N)C(=O)N[C@@H](CCC(N)=O)C(=O)N[C@@H](CCCNC(=N)N)C(=O)N[C@@H](CCCNC(=N)N)C(=O)N[C@@H](CCCNC(=N)N)C(N)=O)NC(=O)[C@H](C)NC(=O)[C@H](Cc2cccc3ccccc23)NC(=O)[C@H](CCCNC(=N)N)NC(=O)[C@@H](Cc2ccc3ccccc3c2)NC(=O)[C@H](Cc2c[nH]cn2)NC(=O)[C@H](CCC(=O)O)NC1=O | 26.6 |  |  | 351 | 101 | 9.34 |
| CC(=O)N[C@H]1CSSC[C@@H](C(=O)N2CCC[C@H]2C(=O)N2CCC[C@H]2C(=O)N[C@@H](CCCCN)C(=O)N[C@@H](CC(=O)O)C(=O)NCCC(=O)N[C@@H](CCCNC(=N)N)C(=O)N[C@@H](CCCNC(=N)N)C(=O)N[C@@H](CCCCN)C(=O)N[C@@H](CCCNC(=N)N)C(=O)N[C@@H](CCCNC(=N)N)C(=O)N[C@@H](CCC(N)=O)C(=O)N[C@@H](CCCNC(=N)N)C(=O)N[C@@H](CCCNC(=N)N)C(=O)N[C@@H](CCCNC(=N)N)C(N)=O)NC(=O)[C@H](C)NC(=O)[C@H](Cc2cccc3ccccc23)NC(=O)[C@H](CCCNC(=N)N)NC(=O)[C@@H](Cc2ccc3ccccc3c2)NC(=O)[C@H](Cc2c[nH]cn2)NC(=O)[C@H](CCC(=O)O)NC1=O | 70.4 |  |  | > 10000 | 286 | 18.6 |
| CC(=O)N[C@H]1CSSC[C@@H](C(=O)N2CCC[C@H]2C(=O)N2CCC[C@H]2C(=O)N[C@@H](CCCCN)C(=O)N[C@@H](CC(=O)O)C(=O)NCCC(=O)NCC(=O)N[C@@H](CCCNC(=N)N)C(=O)N[C@@H](CCCCN)C(=O)N[C@@H](CCCNC(=N)N)C(=O)N[C@@H](CCCNC(=N)N)C(=O)N[C@@H](CCCNC(=N)N)C(=O)N[C@@H](CCC(N)=O)C(=O)N[C@@H](CCCNC(=N)N)C(=O)N[C@@H](CCCNC(=N)N)C(=O)N[C@@H](CCCNC(=N)N)C(N)=O)NC(=O)[C@H](C)NC(=O)[C@H](Cc2cccc3ccccc23)NC(=O)[C@H](CCCNC(=N)N)NC(=O)[C@@H](Cc2ccc3ccccc3c2)NC(=O)[C@H](Cc2c[nH]cn2)NC(=O)[C@H](CCC(=O)O)NC1=O | 45.5 |  |  | 149 | 181 | 6.35 |
| CC(=O)N[C@H]1CSSC[C@@H](C(=O)N2CCC[C@H]2C(=O)N2CCC[C@H]2C(=O)N[C@@H](CCCCN)C(=O)N[C@@H](CC(=O)O)C(=O)NCCC(=O)N[C@@H](CCCNC(=N)N)C(=O)N[C@@H](CCCCN)C(=O)N[C@@H](CCCNC(=N)N)C(=O)N[C@@H](CCCNC(=N)N)C(=O)N[C@@H](CCCNC(=N)N)C(=O)N[C@@H](CCC(N)=O)C(=O)N[C@@H](CCCNC(=N)N)C(=O)N[C@@H](CCCNC(=N)N)C(=O)N[C@@H](CCCNC(=N)N)C(N)=O)NC(=O)[C@H](C)NC(=O)[C@H](Cc2ccc3ccccc3c2)NC(=O)[C@H](CCCNC(=N)N)NC(=O)[C@@H](Cc2ccc3ccccc3c2)NC(=O)[C@H](Cc2c[nH]cn2)NC(=O)[C@H](CCC(=O)O)NC1=O | 23.7 |  |  | 39.7 | 9.22 | 5.87 |
| CC(=O)N[C@H]1CSSC[C@@H](C(=O)N2CCC[C@H]2C(=O)N2CCC[C@H]2C(=O)N[C@@H](CCCCN)C(=O)N[C@@H](CC(=O)O)C(=O)NCCC(=O)N[C@@H](Cc2ccc(O)cc2)C(=O)NCC(=O)N[C@@H](CCCNC(=N)N)C(=O)N[C@@H](CCCCN)C(=O)N[C@@H](CCCNC(=N)N)C(=O)N[C@@H](CCCNC(=N)N)C(=O)N[C@@H](CCCNC(=N)N)C(=O)N[C@@H](CCC(N)=O)C(=O)N[C@@H](CCCNC(=N)N)C(=O)N[C@@H](CCCNC(=N)N)C(=O)N[C@@H](CCCNC(=N)N)C(N)=O)NC(=O)[C@H](C)NC(=O)[C@H](Cc2ccc3ccccc3c2)NC(=O)[C@H](CCCNC(=N)N)NC(=O)[C@@H](Cc2ccc3ccccc3c2)NC(=O)[C@H](Cc2c[nH]cn2)NC(=O)[C@H](CCC(=O)O)NC1=O | 34.7 |  |  | 28.2 | 15 | 8.68 |
| CC(=O)N[C@H]1CSSC[C@@H](C(=O)N2CCC[C@H]2C(=O)N2CCC[C@H]2C(=O)N[C@@H](CCCCN)C(=O)N[C@@H](CC(=O)O)C(=O)NCCC(=O)N[C@@H](CCCNC(=N)N)C(=O)N[C@@H](CCCNC(=N)N)C(=O)N[C@@H](CCCCN)C(=O)N[C@@H](CCCNC(=N)N)C(=O)N[C@@H](CCCNC(=N)N)C(=O)N[C@@H](CCC(N)=O)C(=O)N[C@@H](CCCNC(=N)N)C(=O)N[C@@H](CCCNC(=N)N)C(=O)N[C@@H](CCCNC(=N)N)C(N)=O)NC(=O)[C@H](C)NC(=O)[C@H](Cc2ccc3ccccc3c2)NC(=O)[C@H](CCCNC(=N)N)NC(=O)[C@@H](Cc2ccc3ccccc3c2)NC(=O)[C@H](Cc2c[nH]cn2)NC(=O)[C@H](CCC(=O)O)NC1=O | 88.2 |  |  | 514 | 10.6 | 17.4 |
